This is an account of results in patent publication US5338849A, “Azaindoles, preparation processes and medicinal products containing them” (Lipha, Lyonnaise Industrielle Pharmaceutique, priority 1992, dated 1994).

One assay addresses T1, aortic ACAT (Oryctolagus cuniculus, UniProt A0A5F9CPP4).
T1 construct: the aorta is removed, dissected and homogenised in order to prepare the microsomal fraction by ultracentrifugation; from tissue; host or cells: aorta microsomes of cholesterol-fed male New Zealand rabbits
T1 sequence (A0A5F9CPP4 1-555): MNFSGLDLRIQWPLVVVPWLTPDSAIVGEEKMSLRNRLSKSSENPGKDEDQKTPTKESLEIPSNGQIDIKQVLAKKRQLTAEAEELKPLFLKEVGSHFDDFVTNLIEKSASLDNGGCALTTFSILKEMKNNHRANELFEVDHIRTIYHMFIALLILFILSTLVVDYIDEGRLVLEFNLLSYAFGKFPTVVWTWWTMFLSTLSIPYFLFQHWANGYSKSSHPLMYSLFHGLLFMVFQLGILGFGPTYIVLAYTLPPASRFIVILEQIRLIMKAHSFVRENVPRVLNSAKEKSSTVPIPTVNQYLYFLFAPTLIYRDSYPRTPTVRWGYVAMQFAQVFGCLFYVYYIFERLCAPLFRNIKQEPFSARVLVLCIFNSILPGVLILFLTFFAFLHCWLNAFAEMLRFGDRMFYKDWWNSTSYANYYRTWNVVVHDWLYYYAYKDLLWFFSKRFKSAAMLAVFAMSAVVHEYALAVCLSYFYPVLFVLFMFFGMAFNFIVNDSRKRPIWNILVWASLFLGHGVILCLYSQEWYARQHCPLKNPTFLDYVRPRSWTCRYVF
Nature of the assay: Test A: measurement of the inhibition of aortic ACAT in vitro in rabbits. To be noted: rabbit aortic microsomes, [^14 C]oleoylcoenzyme A, read-out: 50% inhibitory concentration (IC50), concentration of compound which inhibits the ACAT activity by 50%. Format: biochemical, male New Zealand rabbits. Here is the method:
Test A: measurement of the inhibition of aortic ACAT in vitro in rabbits; male New Zealand rabbits weighing between 2.2 and 2.5 kg, subjected beforehand for 15 days to a diet enriched with 1.25% of cholesterol, are sacrificed by cervical dislocation; the aorta is removed, dissected and homogenised in order to prepare the microsomal fraction by ultracentrifugation; these microsomes are incubated in the presence of [^14 C]oleoylcoenzyme A according to the method described by P. J. GILLIES et al., Exp. and Mol. Pathol., 1986, 44, 329-339; the lipids are extracted from the incubate with a methanol/chloroform mixture and the [^14 C]oleoylcholesterol is separated by TLC: the latter compound represents the measure of the ACAT activity, and the results are expressed in the form of a 50% inhibitory concentration (IC50), representing the concentration of compound which inhibits the ACAT activity by 50%.

The next assay concerns blood cholesterol level. In words: Test B: measurement of the hypocholesterolaemic effect in rodents. The class given is in vivo, male Wistar rats. To be noted: Rattus norvegicus; oral, cholesterol-fed rats (2.5% cholesterol, 8 days), 24 hours and 4 hours before sacrifice; read-out: 25% effective dose (ED25), quantity of compound which lowers the blood cholesterol level by 25%. Here is the method:
Test B: measurement of the hypocholesterolaemic effect in rodents; male Wistar rats weighing 200-220 g are subjected to a diet enriched with 2.5% of cholesterol for 8 days; on the last two days, they are treated orally with the test product, 24 hours and 4 hours before being sacrificed by exsanguination: the blood cholesterol level is evaluated on an aliquot fraction of serum by an automated enzymatic method. The results are expressed in the form of a 25% effective dose (ED25) in mg per kg of animal body weight, which represents the quantity of compound which lowers the blood cholesterol level by 25%.

Assay [1] has as its system intestinal absorption of cholesterol. Nature of the assay: Test C: measurement of the inhibition of intestinal absorption of cholesterol in rats. Format: in vivo, Wistar male rats. To be noted: Rattus norvegicus; oral, fasted rats, Triton WR-1339 i.v., [^3 H]cholesterol orally; read-out: 50% effective dose (ED50), quantity of compound which inhibits intestinal absorption of cholesterol by 50%. Here is the method:
Test C: measurement of the inhibition of intestinal absorption of cholesterol in rats; Wistar male rats weighing 230-250 g, fasted for 24 hours, are treated simultaneously with the test product administered orally and with Triton WR-1339 administered i.v.; one hour later, they are treated again orally with [^3 H]cholesterol; three hours later, under ether anaesthesia, 1 ml of blood is withdrawn from their retro-orbital sinus: the blood radioactivity, evaluated on 0.1 ml of serum, represents the measure of the absorption of the [^3 H]cholesterol administered. The results are expressed in the form of a 50% effective dose (ED50) in mg per kg of animal body weight, which represents the quantity of compound which inhibits intestinal absorption of cholesterol by 50%.

pIC50: −log10 of the molar value.

In general, ED50 refers to the midpoint of the dose-response relation.

Take `CC(C)c1cccc(C(C)C)c1NC(=O)NCC1(n2ccc3cccnc32)CCCC1` [compound no. 1, N^1-[1-(7-azaindol-1-yl)cyclopentylmethyl]-N^2-(2,6-diisopropylphenyl)urea]: the pIC50 at aortic ACAT was 6.80. Further, in the assay with blood cholesterol level, the ED25 worked out at 0.202 mg/kg. Moreover, the ED50 in assay [1] turned out to be 0.056 mg/kg.
